Data published in ChEMBL document CHEMBL4507287, “Data for DCP probe MRL-650” (2021).

Experiments:
Cannabinoid receptor 2 = Cannabinoid receptor 2 (Homo sapiens, UniProt P34972); assay: Radioligand Binding Assay (CNR2)
[1] = target: AP2-associated protein kinase 1 (Homo sapiens) (UniProt Q2M2I8); details: Compound concentration 1000.0 nM
[2] = system: Tyrosine-protein kinase ABL1 (Homo sapiens), P00519 [H396P]; details: Compound concentration 1000.0 nM
[3] = target: Tyrosine-protein kinase ABL1 (Homo sapiens) (UniProt P00519); details: Compound concentration 1000.0 nM
[4] = target: Activin receptor type-2A (Homo sapiens) (UniProt P27037); details: Compound concentration 1000.0 nM
[5] = target: BMP-2-inducible protein kinase (Homo sapiens) (UniProt Q9NSY1); details: Compound concentration 1000.0 nM
[6] = target: Bone morphogenetic protein receptor type-1B (Homo sapiens) (UniProt O00238); details: Compound concentration 1000.0 nM
[7] = target: Calcium/calmodulin-dependent protein kinase type 1 (Homo sapiens) (UniProt Q14012); details: Compound concentration 1000.0 nM
[8] = target: Calcium/calmodulin-dependent protein kinase type II subunit gamma (Homo sapiens) (UniProt Q13555); details: Compound concentration 1000.0 nM
[9] = target: Peripheral plasma membrane protein CASK (Homo sapiens) (UniProt O14936); details: Compound concentration 1000.0 nM
Chain of Peripheral plasma membrane protein CASK (Homo sapiens) (O14936 whole entry): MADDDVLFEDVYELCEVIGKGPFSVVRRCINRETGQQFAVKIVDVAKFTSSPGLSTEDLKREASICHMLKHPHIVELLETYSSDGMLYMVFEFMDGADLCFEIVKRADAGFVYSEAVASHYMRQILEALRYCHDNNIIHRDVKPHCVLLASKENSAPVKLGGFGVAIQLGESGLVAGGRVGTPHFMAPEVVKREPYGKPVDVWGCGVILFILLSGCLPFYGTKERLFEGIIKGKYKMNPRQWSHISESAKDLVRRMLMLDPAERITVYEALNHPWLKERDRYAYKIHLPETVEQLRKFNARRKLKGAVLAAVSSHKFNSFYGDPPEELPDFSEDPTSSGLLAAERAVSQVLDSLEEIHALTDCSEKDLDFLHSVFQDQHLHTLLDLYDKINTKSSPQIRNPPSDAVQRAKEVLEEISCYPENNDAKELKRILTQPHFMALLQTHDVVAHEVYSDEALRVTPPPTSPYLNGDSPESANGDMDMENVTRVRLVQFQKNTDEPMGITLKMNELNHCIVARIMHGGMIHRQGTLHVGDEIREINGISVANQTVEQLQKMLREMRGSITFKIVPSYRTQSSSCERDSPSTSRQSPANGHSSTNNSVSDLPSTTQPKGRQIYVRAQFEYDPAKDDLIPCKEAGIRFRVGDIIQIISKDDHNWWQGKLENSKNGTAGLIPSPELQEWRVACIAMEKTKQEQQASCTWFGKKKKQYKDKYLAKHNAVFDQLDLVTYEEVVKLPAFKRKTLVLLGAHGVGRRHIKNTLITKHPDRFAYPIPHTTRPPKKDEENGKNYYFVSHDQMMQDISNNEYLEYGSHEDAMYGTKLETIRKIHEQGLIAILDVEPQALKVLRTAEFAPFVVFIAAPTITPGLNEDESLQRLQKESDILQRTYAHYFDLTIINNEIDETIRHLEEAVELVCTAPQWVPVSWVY

[10] = target: Cyclin-dependent kinase 11B (Homo sapiens) (UniProt P21127); details: Compound concentration 1000.0 nM
[11] = target: Cyclin-dependent kinase-like 5 (Homo sapiens) (UniProt O76039); details: Compound concentration 1000.0 nM
Chain of Cyclin-dependent kinase-like 5 (Homo sapiens) (O76039 whole entry): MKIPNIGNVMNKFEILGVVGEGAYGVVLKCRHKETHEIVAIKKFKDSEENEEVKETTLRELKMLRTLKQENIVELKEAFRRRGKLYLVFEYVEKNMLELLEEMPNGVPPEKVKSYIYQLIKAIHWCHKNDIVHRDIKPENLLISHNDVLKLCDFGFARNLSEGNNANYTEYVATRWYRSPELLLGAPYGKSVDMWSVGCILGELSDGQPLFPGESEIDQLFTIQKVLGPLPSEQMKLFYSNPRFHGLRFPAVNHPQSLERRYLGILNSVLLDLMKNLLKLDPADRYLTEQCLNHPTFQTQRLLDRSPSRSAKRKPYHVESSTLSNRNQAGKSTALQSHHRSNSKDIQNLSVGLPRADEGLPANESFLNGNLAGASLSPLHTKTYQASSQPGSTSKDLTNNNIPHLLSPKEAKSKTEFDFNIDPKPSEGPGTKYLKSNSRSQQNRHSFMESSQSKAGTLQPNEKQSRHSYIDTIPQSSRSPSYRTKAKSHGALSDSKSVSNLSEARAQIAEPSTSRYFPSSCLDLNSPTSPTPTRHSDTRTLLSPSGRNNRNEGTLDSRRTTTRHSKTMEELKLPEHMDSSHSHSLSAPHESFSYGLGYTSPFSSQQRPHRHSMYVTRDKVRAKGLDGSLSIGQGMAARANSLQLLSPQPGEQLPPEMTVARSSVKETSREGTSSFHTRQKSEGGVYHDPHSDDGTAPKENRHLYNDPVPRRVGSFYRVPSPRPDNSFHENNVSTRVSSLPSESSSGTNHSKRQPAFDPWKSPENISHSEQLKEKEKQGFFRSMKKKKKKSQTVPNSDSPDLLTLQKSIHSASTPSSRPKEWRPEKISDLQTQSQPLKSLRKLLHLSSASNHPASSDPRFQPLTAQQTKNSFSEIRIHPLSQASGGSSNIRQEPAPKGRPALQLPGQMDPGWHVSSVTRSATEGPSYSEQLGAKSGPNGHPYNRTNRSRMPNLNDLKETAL

[12] = target: Dual specificity protein kinase CLK1 (Homo sapiens) (UniProt P49759); details: Compound concentration 1000.0 nM
[13] = target: Dual specificity protein kinase CLK4 (Homo sapiens) (UniProt Q9HAZ1); details: Compound concentration 1000.0 nM
Chain of Dual specificity protein kinase CLK4 (Homo sapiens) (Q9HAZ1 whole entry, looked up): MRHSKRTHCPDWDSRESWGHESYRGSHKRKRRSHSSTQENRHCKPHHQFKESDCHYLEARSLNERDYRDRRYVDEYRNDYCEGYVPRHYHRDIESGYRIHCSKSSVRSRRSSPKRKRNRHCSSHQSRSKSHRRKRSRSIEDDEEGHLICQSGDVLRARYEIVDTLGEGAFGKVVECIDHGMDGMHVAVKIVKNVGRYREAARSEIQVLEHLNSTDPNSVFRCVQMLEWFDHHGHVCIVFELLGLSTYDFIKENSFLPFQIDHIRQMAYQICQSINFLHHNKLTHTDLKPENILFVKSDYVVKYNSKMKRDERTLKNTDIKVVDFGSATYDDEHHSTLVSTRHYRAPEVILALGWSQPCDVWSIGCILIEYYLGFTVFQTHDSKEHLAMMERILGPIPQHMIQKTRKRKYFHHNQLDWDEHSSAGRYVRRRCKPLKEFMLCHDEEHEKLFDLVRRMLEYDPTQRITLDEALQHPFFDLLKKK

[14] = target: Serine/threonine-protein kinase DCLK2 (Homo sapiens) (UniProt Q8N568); details: Compound concentration 1000.0 nM
Chain of Serine/threonine-protein kinase DCLK2 (Homo sapiens) (Q8N568 whole entry, the tested form may be a part): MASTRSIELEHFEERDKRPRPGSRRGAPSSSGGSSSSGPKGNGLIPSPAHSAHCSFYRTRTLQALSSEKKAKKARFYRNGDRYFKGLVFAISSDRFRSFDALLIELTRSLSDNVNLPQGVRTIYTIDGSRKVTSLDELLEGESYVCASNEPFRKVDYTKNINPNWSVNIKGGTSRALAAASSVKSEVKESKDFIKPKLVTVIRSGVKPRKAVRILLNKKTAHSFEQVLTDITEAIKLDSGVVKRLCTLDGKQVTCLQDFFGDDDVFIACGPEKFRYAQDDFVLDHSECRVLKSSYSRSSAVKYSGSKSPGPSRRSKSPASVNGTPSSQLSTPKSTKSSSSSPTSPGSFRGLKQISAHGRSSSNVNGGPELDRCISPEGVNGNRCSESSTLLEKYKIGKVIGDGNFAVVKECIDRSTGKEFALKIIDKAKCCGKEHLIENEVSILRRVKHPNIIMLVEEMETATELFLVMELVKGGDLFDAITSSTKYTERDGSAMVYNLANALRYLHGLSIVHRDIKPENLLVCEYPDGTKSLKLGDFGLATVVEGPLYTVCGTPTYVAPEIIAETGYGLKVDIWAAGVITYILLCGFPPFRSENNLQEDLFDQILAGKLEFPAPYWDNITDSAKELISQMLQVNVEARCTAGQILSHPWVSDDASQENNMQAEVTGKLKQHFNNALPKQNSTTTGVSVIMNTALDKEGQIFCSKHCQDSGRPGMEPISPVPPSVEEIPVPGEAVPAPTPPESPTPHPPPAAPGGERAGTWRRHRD

[15] = target: Epithelial discoidin domain-containing receptor 1 (Homo sapiens) (UniProt Q08345); details: Compound concentration 1000.0 nM
[16] = target: Discoidin domain-containing receptor 2 (Homo sapiens) (UniProt Q16832); details: Compound concentration 1000.0 nM
[17] = target: Dual specificity tyrosine-phosphorylation-regulated kinase 1B (Homo sapiens) (UniProt Q9Y463); details: Compound concentration 1000.0 nM
[18] = target: Eukaryotic translation initiation factor 2-alpha kinase 1 (Homo sapiens) (UniProt Q9BQI3); details: Compound concentration 1000.0 nM
Chain of Eukaryotic translation initiation factor 2-alpha kinase 1 (Homo sapiens) (Q9BQI3 whole entry): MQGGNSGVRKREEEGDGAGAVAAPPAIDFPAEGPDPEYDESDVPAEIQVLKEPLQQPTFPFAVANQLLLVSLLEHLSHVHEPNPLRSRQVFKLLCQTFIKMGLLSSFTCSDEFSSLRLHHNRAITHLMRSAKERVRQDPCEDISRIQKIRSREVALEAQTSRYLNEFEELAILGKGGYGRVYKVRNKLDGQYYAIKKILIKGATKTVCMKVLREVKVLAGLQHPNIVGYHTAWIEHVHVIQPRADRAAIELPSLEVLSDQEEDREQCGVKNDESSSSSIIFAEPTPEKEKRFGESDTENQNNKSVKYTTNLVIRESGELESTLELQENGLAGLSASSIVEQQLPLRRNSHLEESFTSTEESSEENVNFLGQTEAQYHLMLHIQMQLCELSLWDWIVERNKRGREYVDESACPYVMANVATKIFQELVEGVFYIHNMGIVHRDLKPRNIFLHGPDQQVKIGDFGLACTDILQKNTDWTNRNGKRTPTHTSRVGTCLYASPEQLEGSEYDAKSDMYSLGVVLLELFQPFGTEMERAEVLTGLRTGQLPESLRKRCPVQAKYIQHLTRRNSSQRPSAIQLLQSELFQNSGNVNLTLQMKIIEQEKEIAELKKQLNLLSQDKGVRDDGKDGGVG

[19] = target: Mitogen-activated protein kinase 3 (Homo sapiens) (UniProt P27361); details: Compound concentration 1000.0 nM
Chain of Mitogen-activated protein kinase 3 (Homo sapiens) (P27361 whole entry): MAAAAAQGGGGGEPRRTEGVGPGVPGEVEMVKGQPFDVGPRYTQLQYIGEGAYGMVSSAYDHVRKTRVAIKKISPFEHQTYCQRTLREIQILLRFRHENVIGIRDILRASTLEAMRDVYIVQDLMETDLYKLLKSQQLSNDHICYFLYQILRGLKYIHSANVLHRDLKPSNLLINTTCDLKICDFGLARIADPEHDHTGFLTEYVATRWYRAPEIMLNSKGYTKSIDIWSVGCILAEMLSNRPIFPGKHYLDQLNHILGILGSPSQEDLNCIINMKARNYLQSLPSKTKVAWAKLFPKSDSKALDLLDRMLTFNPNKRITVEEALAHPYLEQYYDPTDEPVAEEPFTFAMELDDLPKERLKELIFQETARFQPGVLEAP

[20] = target: Serine/threonine-protein kinase/endoribonuclease IRE1 (Homo sapiens) (UniProt O75460); details: Compound concentration 1000.0 nM
[21] = system: Receptor-type tyrosine-protein kinase FLT3 (Homo sapiens), P36888 [UNDEFINED MUTATION]; details: Compound concentration 1000.0 nM
[22] = system: Receptor-type tyrosine-protein kinase FLT3 (Homo sapiens), P36888 [K663Q]; details: Compound concentration 1000.0 nM
[23] = target: Tyrosine-protein kinase Fyn (Homo sapiens) (UniProt P06241); details: Compound concentration 1000.0 nM
[24] = target: Inhibitor of nuclear factor kappa-B kinase subunit epsilon (Homo sapiens) (UniProt Q14164); details: Compound concentration 1000.0 nM
[25] = system: Mast/stem cell growth factor receptor Kit (Homo sapiens), P10721 [D816V]; details: Compound concentration 1000.0 nM
[26] = target: Mitogen-activated protein kinase kinase kinase 4 (Homo sapiens) (UniProt Q9Y6R4); details: Compound concentration 1000.0 nM
[27] = target: Mitogen-activated protein kinase kinase kinase 9 (Homo sapiens) (UniProt P80192); details: Compound concentration 1000.0 nM
[28] = target: Mitogen-activated protein kinase kinase kinase 10 (Homo sapiens) (UniProt Q02779); details: Compound concentration 1000.0 nM
[29] = target: Serine/threonine-protein kinase Nek1 (Homo sapiens) (UniProt Q96PY6); details: Compound concentration 1000.0 nM
[30] = target: Serine/threonine-protein kinase PAK 2 (Homo sapiens) (UniProt Q13177); details: Compound concentration 1000.0 nM
[31] = target: Platelet-derived growth factor receptor beta (Homo sapiens) (UniProt P09619); details: Compound concentration 1000.0 nM
[32] = target: 1-phosphatidylinositol 3-phosphate 5-kinase (Homo sapiens) (UniProt Q9Y2I7); details: Compound concentration 1000.0 nM
[33] = target: Serine/threonine-protein kinase PLK3 (Homo sapiens) (UniProt Q9H4B4); details: Compound concentration 1000.0 nM
[34] = target: cGMP-dependent protein kinase 1 (Homo sapiens) (UniProt Q13976); details: Compound concentration 1000.0 nM
[35] = target: Interferon-induced, double-stranded RNA-activated protein kinase (Homo sapiens) (UniProt P19525); details: Compound concentration 1000.0 nM
[36] = target: Ribosomal protein S6 kinase alpha-6 (Homo sapiens) (UniProt Q9UK32); details: Compound concentration 1000.0 nM
Chain of Ribosomal protein S6 kinase alpha-6 (Homo sapiens) (Q9UK32 whole entry): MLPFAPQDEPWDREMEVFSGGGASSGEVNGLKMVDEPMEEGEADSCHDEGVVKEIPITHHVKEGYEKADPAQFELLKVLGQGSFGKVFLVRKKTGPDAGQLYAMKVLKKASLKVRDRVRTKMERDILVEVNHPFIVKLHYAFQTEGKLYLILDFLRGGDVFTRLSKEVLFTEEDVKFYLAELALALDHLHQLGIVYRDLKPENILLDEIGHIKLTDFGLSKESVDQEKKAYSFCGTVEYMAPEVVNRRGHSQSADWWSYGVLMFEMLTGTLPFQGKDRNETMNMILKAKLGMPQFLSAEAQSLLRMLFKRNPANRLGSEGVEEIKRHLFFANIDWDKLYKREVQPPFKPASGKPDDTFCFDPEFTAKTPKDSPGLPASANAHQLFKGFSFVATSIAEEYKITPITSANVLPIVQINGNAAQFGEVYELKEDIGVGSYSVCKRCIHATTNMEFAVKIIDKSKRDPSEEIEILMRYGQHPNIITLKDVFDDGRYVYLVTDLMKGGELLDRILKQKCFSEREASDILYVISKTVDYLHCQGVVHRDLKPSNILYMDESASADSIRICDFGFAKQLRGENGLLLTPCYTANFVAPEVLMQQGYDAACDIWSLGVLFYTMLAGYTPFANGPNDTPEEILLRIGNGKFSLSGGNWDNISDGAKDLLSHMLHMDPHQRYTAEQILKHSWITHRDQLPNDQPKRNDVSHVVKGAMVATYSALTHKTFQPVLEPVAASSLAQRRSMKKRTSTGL

[37] = target: STE20-like serine/threonine-protein kinase (Homo sapiens) (UniProt Q9H2G2); details: Compound concentration 1000.0 nM
[38] = target: TGF-beta receptor type-2 (Homo sapiens) (UniProt P37173); details: Compound concentration 1000.0 nM
[39] = target: BDNF/NT-3 growth factors receptor (Homo sapiens) (UniProt Q16620); details: Compound concentration 1000.0 nM
[40] = target: Tyrosine-protein kinase receptor TYRO3 (Homo sapiens) (UniProt Q06418); details: Compound concentration 1000.0 nM
[41] = target: Vascular endothelial growth factor receptor 2 (Homo sapiens) (UniProt P35968); details: Compound concentration 1000.0 nM
[42] = target: 5-hydroxytryptamine receptor 3A (Homo sapiens) (UniProt P46098); details: Compound concentration 10.0 uM
[43] = target: Sodium-dependent dopamine transporter (Homo sapiens, UniProt Q01959); details: Compound concentration 10.0 uM
Rattus norvegicus = species: Rattus norvegicus; details: Compound concentration 10.0 uM

Compound: CC(=O)c1c(NS(C)(=O)=O)c2cc(-c3ccc(Cl)cc3)c(-c3ccc(Cl)cc3Cl)nc2n(C)c1=O [MRL-CB1-NC]
- Inverse agonism (Cannabinoid receptor 2): 38.3%
- residual activity [1]: 100%
- residual activity [2]: 100%
- residual activity [3]: 91%
- residual activity [4]: 100%
- residual activity [5]: 100%
- residual activity [6]: 100%
- residual activity [7]: 100%
- residual activity [8]: 100%
- residual activity [9]: 92%
- residual activity [10]: 84%
- residual activity [11]: 94%
- residual activity [12]: 100%
- residual activity [13]: 100%
- residual activity [14]: 96%
- residual activity [15]: 100%
- residual activity [16]: 96%
- residual activity [17]: 100%
- residual activity [18]: 83%
- residual activity [19]: 100%
- residual activity [20]: 77%
- residual activity [21]: 87%
- residual activity [22]: 100%
- residual activity [23]: 92%
- residual activity [24]: 73%
- residual activity [25]: 100%
- residual activity [26]: 95%
- residual activity [27]: 100%
- residual activity [28]: 99%
- residual activity [29]: 100%
- residual activity [30]: 100%
- residual activity [31]: 95%
- residual activity [32]: 66%
- residual activity [33]: 89%
- residual activity [34]: 75%
- residual activity [35]: 100%
- residual activity [36]: 76%
- residual activity [37]: 100%
- residual activity [38]: 100%
- residual activity [39]: 94%
- residual activity [40]: 64%
- residual activity [41]: 82%
- inhibition [42]: 3.2%
- inhibition [43]: 67.1%
- inhibition (Rattus norvegicus): 36.9%

Compound: CC(=O)Nc1c(C(C)=O)c(=O)n(C)c2nc(-c3ccc(Cl)cc3Cl)c(-c3ccc(Cl)cc3)cc12 [NAPHTHYRIDINONE]
- IC50 (Cannabinoid receptor 2): 4.63 µM (not active)
- residual activity [1]: 100%
- residual activity [2]: 100%
- residual activity [3]: 85%
- residual activity [4]: 100%
- residual activity [5]: 100%
- residual activity [6]: 100%
- residual activity [7]: 100%
- residual activity [8]: 100%
- residual activity [9]: 83%
- residual activity [10]: 83%
- residual activity [11]: 100%
- residual activity [12]: 100%
- residual activity [13]: 100%
- residual activity [14]: 100%
- residual activity [15]: 100%
- residual activity [16]: 100%
- residual activity [17]: 35%
- residual activity [18]: 68%
- residual activity [19]: 100%
- residual activity [20]: 100%
- residual activity [21]: 100%
- residual activity [22]: 100%
- residual activity [23]: 100%
- residual activity [24]: 80%
- residual activity [25]: 100%
- residual activity [26]: 89%
- residual activity [27]: 100%
- residual activity [28]: 100%
- residual activity [29]: 100%
- residual activity [30]: 100%
- residual activity [31]: 100%
- residual activity [32]: 100%
- residual activity [33]: 100%
- residual activity [34]: 100%
- residual activity [35]: 100%
- residual activity [36]: 88%
- residual activity [37]: 100%
- residual activity [38]: 100%
- residual activity [39]: 100%
- residual activity [40]: 68%
- residual activity [41]: 94%
- inhibition [42]: 5.67%
- inhibition [43]: 36.4%
- inhibition (Rattus norvegicus): 82.7%
